pKd: −log10 of the molar value.
Key:
[1] = Dissociation constant of [3H]DPCPX binding to adenosine A1 receptor (AR) at 200 nM
[2] = Dissociation constant of [3H]DPCPX binding to adenosine A1 receptor (AR) at 100 nM
[3] = Dissociation constant of [3H]DPCPX binding to adenosine A1 receptor (AR) at 5 nM
[4] = Dissociation constant of [3H]DPCPX binding to adenosine A1 receptor (AR) at 0.05 nM
[5] = Dissociation constant of [3H]-DPCPX binding to adenosine A1 receptor (AR) at 0.1 nM
[6] = Dissociation constant of [3H]-DPCPX binding to adenosine A1 receptor(AR) at 0.05 nM
[7] = Dissociation constant of [3H]DPCPX binding to adenosine A1 receptor(AR) at 0.1 nM

Q: With `CCCn1c(=O)c2[nH]c(C3CCCCC3)nc2n(CCCCCc2ccc(S(=O)(=O)F)cc2)c1=O` [4-[5-(8-Cyclohexyl-2,6-dioxo-1-propyl-1,2,6,7-tetrahydro-purin-3-yl)-pentyl]-benzenesulfonyl fluoride] as the compound, how does the pKd [1] read?
A: The pKd was 9.09.

Q: With `CCCn1c(=O)c2[nH]c(C3CCCCC3)nc2n(CCCNC(=O)c2ccc(S(=O)(=O)F)cc2)c1=O` [4-[3-(8-Cyclohexyl-2,6-dioxo-1-propyl-1,2,6,7-tetrahydro-purin-3-yl)-propylcarbamoyl]-benzenesulfonyl fluoride] as the compound, how does the pKd [2] read?
A: Its pKd is 9.47.

Q: What about the pKd [3] of the same compound?
A: Its pKd is 9.43.

Q: And the pKd [4]?
A: Its pKd is 9.55.

Q: What about the pKd [5] of the same compound?
A: The pKd was 9.57.

Q: With `CCCn1c(=O)c2[nH]c(C3CCCCC3)nc2n(CCCc2ccc(S(=O)(=O)F)cc2)c1=O` [4-[3-(8-Cyclohexyl-2,6-dioxo-1-propyl-1,2,6,7-tetrahydro-purin-3-yl)-propyl]-benzenesulfonyl fluoride] as the compound, how does the pKd [1] read?
A: The pKd was 9.43.

Q: With `CCCn1c(=O)c2[nH]c(C3CCCC3)nc2n(CCCNC(=O)c2ccc(S(=O)(=O)F)cc2)c1=O` [4-[3-(8-Cyclopentyl-2,6-dioxo-1-propyl-1,2,6,7-tetrahydro-purin-3-yl)-propylcarbamoyl]-benzenesulfonyl fluoride] as the compound, how does the pKd [6] read?
A: The pKd was 9.59.

Q: What about the pKd [7] of the same compound?
A: Its pKd is 9.62.

Q: With `CCCn1c(=O)c2[nH]c(C3CCCCC3)nc2n(Cc2ccc(S(=O)(=O)F)cc2)c1=O` [4-(8-Cyclohexyl-2,6-dioxo-1-propyl-1,2,6,7-tetrahydro-purin-3-ylmethyl)-benzenesulfonyl fluoride] as the compound, how does the pKd [1] read?
A: Its pKd is 9.49.
